In patent US8163909B2, “Substituted hydroxyethyl amine compounds as beta-secretase modulators and methods of use” (Amgen Inc., priority 2007, dated 2012):
pIC50: −log10 of the molar value. Read-outs that look alike come from different tables or passages of the source.

Columns and labels:
[1] = test system: Aβ40 in conditioned medium of cells stably expressing Amyloid Precursor Protein (APP); experiment: In vitro BACE cell-based assay (Aβ40 in conditioned medium, sandwich ELISA);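 note: compounds added as a dilution series, secreted peptide quantified by europium time-resolved fluorescence readout, potency fitted from percent of control versus compound concentration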
[2] = biological target: Beta Secretase enzyme (BACE) (Homo sapiens, UniProt P56817); experiment: In vitro enzymatic BACE FRET (fluorescence resonance energy transfer) assay; assay type: biochemical;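 note: fluorescence read after 1 h with 50 nM quenched peptide substrate spanning the BACE cleavage site, in pH 4.2 acetate buffer containing 10% DMSO and nonionic detergent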
Sequence of Beta Secretase enzyme (BACE) (P56817 46-501): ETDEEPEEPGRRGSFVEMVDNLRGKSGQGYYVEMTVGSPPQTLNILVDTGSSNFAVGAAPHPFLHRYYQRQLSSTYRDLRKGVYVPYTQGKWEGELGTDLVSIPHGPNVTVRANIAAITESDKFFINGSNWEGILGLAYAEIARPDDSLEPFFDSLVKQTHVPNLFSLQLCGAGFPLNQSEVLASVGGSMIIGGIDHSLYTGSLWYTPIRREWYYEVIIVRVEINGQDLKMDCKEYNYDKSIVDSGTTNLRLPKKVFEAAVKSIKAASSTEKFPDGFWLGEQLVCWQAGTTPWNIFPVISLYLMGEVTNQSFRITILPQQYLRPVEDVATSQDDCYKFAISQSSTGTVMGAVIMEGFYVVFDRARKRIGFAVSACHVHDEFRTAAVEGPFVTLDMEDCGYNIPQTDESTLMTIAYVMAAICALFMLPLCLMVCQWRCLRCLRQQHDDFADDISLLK

[3] = Homo sapiens, HEK293, HEK cells, cell-based assay, read-out: HEK cell assay (IC50)
[4] = BACE enzyme assay, read-out: BACE1 FRET assay (IC50)
[5] = BACE enzyme FRET assay, read-out: BACE1 FRET assay (IC50)
[6] = HEK cells, cell-based assay, read-out: HEK cell assay (IC50)
[7] = Homo sapiens, HEK293, Table 1, HEK cells, read-out: HEK cell assay
[8] = Table 1, read-out: BACE1 FRET assay
[9] = Homo sapiens, HEK293, HEK cell-based assay IC50, read-out: HEK cell assay
[10] = BACE enzyme assay IC50, read-out: BACE1 FRET assay

Row | Molecule | pIC50 [1, 3] | pIC50 [2, 4] | pIC50 [2, 5] | also measured
1 | C[C@@H](O)C(=O)N[C@@H](Cc1ccc(F)cc1)[C@H](O)CN[C@H]1CC2(CCC2)Oc2ncc(CC(C)(C)C)cc21 [compound 157] | 7.66 | 7.82 | – | –
2 | CNc1nc(CC(C)(C)C)cc2c1OC1(CCC1)C[C@@H]2NC[C@@H](O)[C@H](Cc1ccccc1)NC(=O)COC [compound 112] | 8.05 | 7.52 | – | –
3 | COCC(=O)N[C@@H](Cc1ccc2c(c1)OCO2)[C@H](O)CN[C@H]1CC(C)(C)Cc2sc(CC(C)(C)C)cc21 [compound 187] | 7.20 | – | 7.70 | –
4 | COC(C)C(=O)NC(Cc1ccc2c(c1)OCO2)C(O)CNC1CC2(CC(O)C2)Oc2cnccc21 [compound 243, (2R)—N-((1S,2R)-1-(1,3-benzodioxol-5-ylmethyl)-2-hydroxy-3-(((1s,3S,4′S)-3-hydroxy-3′,4′-dihydrospiro[cyclobutane-1,2′-pyrano[2,3-c]pyridin]-4′-yl)amino)propyl)-2-(methyloxy)propanamide] | – | – | 4.44 | pIC50 [1, 6]: 5.48
5 | CCC(=O)Nc1cnc2c(c1)[C@@H](NC[C@@H](O)[C@H](Cc1ccc(F)cc1)NC(C)=O)CC1(CCC1)O2 [compound 85] | < 5.00 | 6.05 | – | –
6 | CO[C@H](C)C(=O)N[C@@H](Cc1ccc(Cl)c(F)c1)[C@H](O)CN[C@H]1CC2(CCC2)Oc2ncc(CC(C)(C)C(F)F)cc21 [compound 227] | 7.50 | – | 7.82 | –
7 | COCC(=O)N[C@@H](Cc1cccc(F)c1)[C@H](O)CN[C@H]1CC2(CCC2)Oc2cnc(CC(C)(C)F)cc21 [compound 252] | 7.27 | – | 7.63 | –
8 | COCC(=O)N[C@@H](Cc1cc(F)cc(F)c1)[C@H](O)CN[C@H]1CC2(CCC2)Oc2ncc(CC(C)(C)F)cc21 [compound 286] | 8.22 | – | 8.48 | –
9 | CC(C)(C)Cc1cnc2c(c1)[C@@H](NC[C@@H](O)[C@H](Cc1cccc(F)c1)NC(=O)C(C)(Cl)Cl)CC1(CCC1)O2 [compound 106] | 6.08 | 7.17 | – | –
10 | COC(=O)C1CC2(C1)CC(NCC(O)C(Cc1ccc(F)cc1)NC(C)=O)c1cc(CC(C)(C)C)cnc1O2 [compound 257, methyl (1s,3R,4′S)-4′-(((2R,3S)-3-(acetylamino)-4-(4-fluorophenyl)-2-hydroxybutyl)amino)-6′-(2,2-dimethylpropyl)-3′,4′-dihydrospiro[cyclobutane-1,2′-pyrano[2,3-b]pyridine]-3-carboxylate] | – | – | 6.57 | pIC50 [1, 6]: 6.43
11 | CC(=O)N[C@@H](Cc1ccc2c(c1)OCO2)[C@H](O)CN[C@H]1CC2(CCC2)Cc2ncc(CC(C)(C)C)cc21 [compound 167] | 7.17 | 6.90 | – | –
12 | CC(C)(C)Cc1cnc2c(c1)[C@@H](NC[C@@H](O)[C@H](Cc1ccc(F)cc1)NC(=O)[C@@H](O)C(F)(F)F)CC1(CCC1)O2 [compound 69] | 7.11 | 7.47 | – | –
13 | COCCNc1nc(CC(C)(C)C)cc2c1OC1(CCC1)C[C@@H]2NC[C@@H](O)[C@H](Cc1ccc(F)cc1)NC(=O)COC [compound 150] | 7.65 | 7.32 | – | –
14 | COCC(=O)N[C@@H](Cc1ccccc1)[C@H](O)CN[C@H]1CC2(CCC2)Oc2ncc(CC(C)(C)CF)cc21 [compound 184] | 8.19 | 8.61 | – | –
15 | CC(=O)N[C@@H](Cc1ccc(F)cc1)[C@H](O)CN[C@H]1CC2(CCC2)Oc2c1cc(CC(C)(C)C)nc2NCC(F)(F)F [compound 144] | 6.20 | 7.03 | – | –
16 | COCC(=O)N[C@@H](Cc1ccc2c(c1)OCO2)[C@H](O)CN[C@H]1CC2(CCC2)Oc2cnc(CC(C)(C)C)cc21 [compound 119] | 6.90 | 6.69 | – | –
17 | CC(=O)N[C@@H](Cc1cc(F)cc(F)c1)[C@H](O)CN[C@H]1CC2(CCCC2)C(=O)c2ccc(CC(C)(C)C)cc21 [compound 90] | 7.13 | 7.99 | – | –
18 | COCC(=O)N[C@@H](Cc1cc(F)c2c(c1)OCO2)[C@H](O)CN[C@H]1CC2(CCC2)Oc2ncc(CC(C)(C)C)cc21 [compound 302] | 7.94 | – | 8.24 | –
19 | COCC(=O)N[C@@H](Cc1cccc(F)c1)[C@H](O)CN[C@H]1CC2(CC(F)(F)C2)Oc2ncc(CC(C)(F)F)cc21 [compound 280] | 6.76 | – | 7.72 | –
20 | CO[C@H](C)C(=O)N[C@@H](Cc1cccc(F)c1)[C@H](O)CN[C@H]1CC2(CCC2)Oc2ncc(CC(F)(F)F)cc21 [compound 344] | – | – | – | pIC50 [1, 7]: 7.35; pIC50 [2, 8]: 8.05
21 | CC(C)(C)Cc1cnc2c(c1)[C@@H](NC[C@@H](O)[C@H](Cc1cc(F)cc(F)c1)NC(=O)C(F)(F)Cl)CC1(CCC1)O2 [compound 96] | 7.36 | 9.64 | – | –

Row | Molecule | pIC50 [1, 3] | pIC50 [2, 4] | pIC50 [2, 5] | also measured
22 | CC(C)(C)Cc1cnc2c(c1)[C@@H](NC[C@@H](O)[C@H](Cc1cccc(F)c1)NC(=O)C1CN(C3CCC3)C(=O)C1(C)C)CC1(CCC1)O2 (stereo partly drawn) [compound 66] | 5.96 | 7.36 | – | –
23 | COCC(=O)NC(Cc1ccc2c(c1)OCO2)C(O)CNC1CC2(CC(C)C2)Oc2ncc(CC(C)(C)C)cc21 [compound 238, N-((1S,2R)-1-(1,3-benzodioxol-5-ylmethyl)-3-(((1s,3R,4′S)-6′-(2,2-dimethylpropyl)-3-methyl-3′,4′-dihydrospiro[cyclobutane-1,2′-pyrano[2,3-b]pyridin]-4′-yl)amino)-2-hydroxypropyl)-2-(methyloxy)acetamide] | 7.48 | – | 7.73 | –
24 | CO[C@@H](C)C(=O)N[C@@H](Cc1cc(F)c2c(c1)OCO2)[C@H](O)CN[C@H]1CC2(CCC2)Oc2ncc(CC(C)(C)C)cc21 [compound 304] | 7.05 | – | 7.42 | –
25 | CCOCC(=O)N[C@@H](Cc1ccc2c(c1)OCO2)[C@H](O)CN[C@H]1CC2(CCC2)Oc2ncc(CC(C)C)cc21 [compound 720] | – | – | – | pIC50 [1, 9]: 6.87; pIC50 [2, 10]: 7.24
26 | CC(=O)N[C@@H](Cc1cc(Cl)c2c(c1)OCO2)[C@H](O)CN[C@H]1CC2(CCC2)Oc2ncc(CC(C)(C)C)cc21 [compound 207] | 7.85 | – | 8.18 | –
27 | CC(=O)N[C@@H](Cc1cccc(F)c1)[C@H](O)CN[C@H]1CC2(CCC2)Oc2ncc(C[C@@H](C)C(F)(F)F)cc21 [compound 315] | – | – | – | pIC50 [1, 7]: 8.03; pIC50 [2, 8]: 8.21
28 | CC(C)(C)Cc1cnc2c(c1)[C@@H](NC[C@@H](O)[C@H](Cc1cccc(F)c1)NC(=O)CCl)CC1(CCC1)O2 [compound 107] | 7.65 | 8.29 | – | –
29 | CCc1cnc2c(c1)[C@@H](NC[C@@H](O)[C@H](Cc1cc(F)cc(-c3nccs3)c1)NC(=O)COC)CC1(CCC1)O2 [compound 728] | – | – | – | pIC50 [1, 9]: 6.97; pIC50 [2, 10]: 7.52
30 | CC(C)(C)Cc1cnc2c(c1)[C@@H](NC[C@@H](O)[C@H](Cc1cc(F)cc(F)c1)NC(=O)COCc1cncs1)CC1(CCC1)O2 [compound 94] | 7.77 | 8.52 | – | –
31 | N-((1S,2R)-1-((3-cyanophenyl)methyl)-3-(((4′S)-6′-(2,2-dimethylpropyl)-3′,4′-dihydrospiro[cyclobutane-1,2′-pyrano[2,3-b]pyridin]-4′-yl)amino)-2-hydroxypropyl)-1-cyclobutyl-4,4-dimethyl-5-oxo-3-pyrrolidinecarboxamide [compound 60] | – | 7.68 | – | pIC50 [1, 6]: 7.20
32 | COCC(=O)N[C@@H](Cc1cccc(-c2nccs2)c1)[C@H](O)CN[C@H]1CC2(CCC2)Oc2cnc(CC(C)(C)C)cc21 [compound 807] | – | – | – | IC50 ([1]; Homo sapiens, HEK293, HEK cell-based assay, IC50's in uM, read-out: HEK cell assay): 0.054 µM; IC50 ([2]; BACE enzyme assay, IC50's in uM, read-out: BACE1 FRET assay): 0.019 µM
33 | CC(=O)N[C@@H](Cc1cccc(F)c1C)[C@H](O)CN[C@H]1CC2(CCC2)Oc2ncc(CC(C)(C)C)cc21 [compound 109] | 6.50 | 7.14 | – | –
34 | CO[C@H](C)C(=O)N[C@@H](Cc1cccc(F)c1)[C@H](O)CN[C@H]1CC2(CCC2)Oc2c(-c3ccncc3)cc(CC(C)(C)F)cc21 [compound 564] | – | – | – | pIC50 ([1]; Homo sapiens, HEK293, HEK cells, read-out: HEK cell assay): 7.54; pIC50 ([2]; BACE enzyme assay, read-out: BACE1 FRET assay): 7.49
35 | COCC(=O)N[C@@H](Cc1cccc(F)c1)[C@H](O)CN[C@H]1CC2(CCC2)Oc2ncc(CC(C)(F)F)cc21 [compound 278] | 8.09 | – | 8.17 | –
36 | COCC(=O)N[C@@H](Cc1ccc2c(c1)OCO2)[C@@H](CN[C@H]1CC2(CCC2)Oc2ncc([C@H](F)C(C)(C)C)cc21)OC [compound 196] | 5.40 | – | 5.58 | –
37 | N-((1S,2R)-1-(4-thiazolylmethyl)-3-(((5′S)-3′-(2,2-dimethylpropyl)-5′,8′-dihydro-6′H-spiro[cyclobutane-1,7′-quinolin]-5′-yl)amino)-2-hydroxypropyl)-2-(methyloxy)acetamide [compound 176] | – | 7.98 | – | pIC50 [1, 6]: 7.77
38 | CC(C)(C)Cc1cnc2c(c1)[C@@H](NC[C@@H](O)[C@H](Cc1ccc3c(c1)OCO3)NC(=O)CF)CC1(CCC1)O2 [compound 283] | 7.72 | – | 8.12 | –
39 | CCNc1cc(Br)cc2c1OC1(CCC1)C[C@@H]2NC[C@@H](O)[C@H](Cc1cccc(F)c1)NC(=O)COC [compound 270] | 6.80 | – | 6.35 | –
40 | CNc1nc(CC(C)(C)C)cc2c1OC1(CCC1)C[C@@H]2NC[C@@H](O)[C@H](Cc1ccc2c(c1)OCO2)NC(=O)COC [compound 125] | 7.88 | 7.24 | – | –
41 | COCC(=O)N[C@@H](Cc1ccc(F)c(Br)c1)[C@H](O)CN[C@H]1CC2(CCC2)Oc2ncc(CC(C)(C)C)cc21 [compound 352] | – | – | – | pIC50 [1, 7]: 7.75; pIC50 [2, 8]: 8.43
42 | CC(=O)NC(Cc1ccc(F)cc1)C(O)CNC1CC2(CC(C#N)C2)Oc2ncc(CC(C)(C)C)cc21 [compound 260, N-((1S,2R)-3-(((1s,3R,4′S)-3-cyano-6′-(2,2-dimethylpropyl)-3′,4′-dihydrospiro[cyclobutane-1,2′-pyrano[2,3-b]pyridin]-4′-yl)amino)-1-((4-fluorophenyl)methyl)-2-hydroxypropyl)acetamide] | 7.15 | – | 7.01 | –
